According to patent EP1272659B1, “EARLY DIAGNOSIS OF M[…] HUMAN BEINGS” (Università degli Studi di Roma " Tor Vergata", priority 2000, dated 2001):

Biological target: T1, FAAH (anandamide hydrolase; arachidonoylethanolamide amidohydrolase, EC 3.5.1.4) in human lymphocyte homogenates (Homo sapiens, UniProt O00519)
T1 construct: Lymphocytes were purified from peripheral blood by gradient centrifugation; from tissue; host or cells: human peripheral blood lymphocytes of pregnant women, homogenate
T1 sequence (O00519 1-579): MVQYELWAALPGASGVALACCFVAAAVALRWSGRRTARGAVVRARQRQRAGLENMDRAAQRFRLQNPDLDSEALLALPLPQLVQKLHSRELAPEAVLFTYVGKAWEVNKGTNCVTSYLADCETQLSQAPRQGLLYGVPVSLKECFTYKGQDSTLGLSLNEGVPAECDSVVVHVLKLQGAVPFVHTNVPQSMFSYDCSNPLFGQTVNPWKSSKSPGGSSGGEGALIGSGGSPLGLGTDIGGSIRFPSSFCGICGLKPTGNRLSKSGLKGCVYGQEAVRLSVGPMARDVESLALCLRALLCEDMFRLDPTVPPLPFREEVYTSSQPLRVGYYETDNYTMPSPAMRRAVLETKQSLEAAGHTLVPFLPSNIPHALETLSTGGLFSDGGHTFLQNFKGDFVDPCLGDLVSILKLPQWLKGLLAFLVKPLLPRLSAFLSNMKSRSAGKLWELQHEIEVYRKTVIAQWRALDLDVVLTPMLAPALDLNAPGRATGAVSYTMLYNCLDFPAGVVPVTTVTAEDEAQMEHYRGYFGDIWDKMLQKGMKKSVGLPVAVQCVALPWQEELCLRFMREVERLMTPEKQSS
Experiment: Kinetic analysis of FAAH activity in human lymphocyte homogenates: release of [1-14C]arachidonic acid from [1-14C]anandamide, reversed phase HPLC
Format: biochemical
Details: <8 weeks of pregnancy; for apparent maximum velocity (Vmax): lymphocyte homogenates
Method: The activity of FAAH (arachidonoylethanolamide amidohydrolase, EC 3.5.1.4) in human lymphocyte homogenates (20 µg/test) was determined by measuring the release of [1-^14C] arachidonic acid from [1-^14C] anandamide (NEN DuPont de Nemours, 52 mCi/mmol), using reversed phase high performance liquid cromatography as reported in Maccarrone et al. 1998.
The difference in FAAH activity between the group of 43 subjects with normal pregnancy (mean value = 169.60 ± 30.20 pmol.min^-1.mg protein^-1) and the group of 7 women who aborted (mean value 60.43 ± 29.34 pmol.min^-1.mg protein^-1) was statistically significant (P<0.0001 by the Mann-Whitney test). Embryonic death occurred approximately 10 days later, i.e. at 8 to 11 weeks for the subjects <7- to <10-week pregnant, respectively. […] On the other hand, the bell-shaped curve found for FAAH activity in normal subjects is frequently observed with biological indicators of the first trimester of pregnancy, such as the beta-subunit of human chorionic gonadotropin (Goldstein in Obstet Gynecol 1994).
FAAH (arachidonoylethanolamide amidohydrolase, EC 3.5.1.4) activity in human lymphocyte homogenates (20 µg/test) was determined by measuring the release of [1-^14C]arachidonic acid from [1-^14C] anandamide (NEN DuPont de Nemours, 52 mCi/mmol), using reverse phase high performance liquid cromatography as reported (Maccarrone et al. 1998). It has to be pointed out that the use of [^3H] anandamide, measuring the release of [^3H]arachidonic acid, yields the same results.

## CCCCC/C=C\C/C=C\C/C=C\C/C=C\CCCC(=O)NCCO [anandamide, arachidonoylethanolamide]
Subjects who miscarried
  apparent maximum velocity (Vmax): 75 ± 8 pmol.min^-1.mg protein^-1
Subjects with normal gestation
  apparent maximum velocity (Vmax): 187 ± 20 pmol.min^-1.mg protein^-1
read-out: apparent Michaelis-Menten constant (Km), lymphocyte homogenates (20 µg/test), same value for subjects with normal gestation and those who miscarried
  Km: 8 ± 1 µM
